Numbers after ± are expanded uncertainties.
How the values were obtained:
[1] = xn = mol fraction of the nth substance listed; conditions: 323.15 K, 100 kPa, Liquid; for speed of sound: Frequency=3 MHz, Single path-length method; for mass density: Vibrating tube method
[2] = refractive index (Na D-line) (dimensionless); xn = mol fraction of the nth substance listed; conditions: 100 kPa, Liquid, Standard Abbe refractometry

CN(C)CCCO [3-dimethylamino-1-propanol] + C[S+](C)[O-]
speed of sound ([1]; x2 = 0): 1285.7 ± 1.7 m/s | speed of sound ([1]; x2 = 0.0517): 1288.2 ± 1.7 m/s | speed of sound ([1]; x2 = 0.0986): 1289.5 ± 1.7 m/s | speed of sound ([1]; x2 = 0.1998): 1293.8 ± 1.6 m/s | speed of sound ([1]; x2 = 0.3): 1299.3 ± 1.6 m/s | speed of sound ([1]; x2 = 0.3998): 1306.1 ± 1.6 m/s | speed of sound ([1]; x2 = 0.5031): 1315.1 ± 1.6 m/s | speed of sound ([1]; x2 = 0.5988): 1325.5 ± 1.5 m/s | speed of sound ([1]; x2 = 0.6998): 1339.4 ± 1.5 m/s | speed of sound ([1]; x2 = 0.7918): 1354.7 ± 1.5 m/s | speed of sound ([1]; x2 = 0.899): 1377.6 ± 1.5 m/s | speed of sound ([1]; x2 = 0.9494): 1389 ± 1.5 m/s | mass density ([1]; x2 = 0): 860 ± 4 kg/m3 | mass density ([1]; x2 = 0.0517): 867 ± 4 kg/m3 | mass density ([1]; x2 = 0.0986): 873 ± 4 kg/m3 | mass density ([1]; x2 = 0.1998): 886 ± 4 kg/m3 | mass density ([1]; x2 = 0.3): 901 ± 4 kg/m3 | mass density ([1]; x2 = 0.3998): 918 ± 4 kg/m3 | mass density ([1]; x2 = 0.5031): 937 ± 4 kg/m3 | mass density ([1]; x2 = 0.5988): 956 ± 4 kg/m3 | mass density ([1]; x2 = 0.6998): 980 ± 4 kg/m3 | mass density ([1]; x2 = 0.7918): 1004 ± 4 kg/m3 | mass density ([1]; x2 = 0.899): 1036 ± 4 kg/m3 | mass density ([1]; x2 = 0.9494): 1052 ± 4 kg/m3 | refractive index ([2]; 293.15 K, x2 = 0): 1.437 ± 0.006 | refractive index ([2]; 293.15 K, x2 = 0.0517): 1.438 ± 0.006 | refractive index ([2]; 293.15 K, x2 = 0.0986): 1.439 ± 0.006 | refractive index ([2]; 293.15 K, x2 = 0.1998): 1.442 ± 0.006 | refractive index ([2]; 293.15 K, x2 = 0.3): 1.444 ± 0.006 | refractive index ([2]; 293.15 K, x2 = 0.3998): 1.447 ± 0.006 | refractive index ([2]; 293.15 K, x2 = 0.5031): 1.451 ± 0.006 | refractive index ([2]; 293.15 K, x2 = 0.5988): 1.455 ± 0.006 | refractive index ([2]; 293.15 K, x2 = 0.6998): 1.46 ± 0.006 | refractive index ([2]; 293.15 K, x2 = 0.7918): 1.465 ± 0.006 | refractive index ([2]; 293.15 K, x2 = 0.899): 1.472 ± 0.006 | refractive index ([2]; 293.15 K, x2 = 0.9494): 1.476 ± 0.006 | refractive index ([2]; 303.15 K, x2 = 0): 1.433 ± 0.006 | refractive index ([2]; 303.15 K, x2 = 0.0517): 1.434 ± 0.006 | refractive index ([2]; 303.15 K, x2 = 0.0986): 1.435 ± 0.006 | refractive index ([2]; 303.15 K, x2 = 0.1998): 1.437 ± 0.006 | refractive index ([2]; 303.15 K, x2 = 0.3): 1.44 ± 0.006 | refractive index ([2]; 303.15 K, x2 = 0.3998): 1.443 ± 0.006 | refractive index ([2]; 303.15 K, x2 = 0.5031): 1.447 ± 0.006 | refractive index ([2]; 303.15 K, x2 = 0.5988): 1.451 ± 0.006 | refractive index ([2]; 303.15 K, x2 = 0.6998): 1.456 ± 0.006 | refractive index ([2]; 303.15 K, x2 = 0.7918): 1.46 ± 0.006 | refractive index ([2]; 303.15 K, x2 = 0.899): 1.467 ± 0.006 | refractive index ([2]; 303.15 K, x2 = 0.9494): 1.471 ± 0.006 | refractive index ([2]; 313.15 K, x2 = 0): 1.429 ± 0.006 | refractive index ([2]; 313.15 K, x2 = 0.0517): 1.43 ± 0.006 | refractive index ([2]; 313.15 K, x2 = 0.0986): 1.431 ± 0.006 | refractive index ([2]; 313.15 K, x2 = 0.1998): 1.433 ± 0.006 | refractive index ([2]; 313.15 K, x2 = 0.3): 1.436 ± 0.006 | refractive index ([2]; 313.15 K, x2 = 0.3998): 1.439 ± 0.006 | refractive index ([2]; 313.15 K, x2 = 0.5031): 1.443 ± 0.006 | refractive index ([2]; 313.15 K, x2 = 0.5988): 1.447 ± 0.006 | refractive index ([2]; 313.15 K, x2 = 0.6998): 1.451 ± 0.006 | refractive index ([2]; 313.15 K, x2 = 0.7918): 1.456 ± 0.006 | refractive index ([2]; 313.15 K, x2 = 0.899): 1.463 ± 0.006 | refractive index ([2]; 313.15 K, x2 = 0.9494): 1.467 ± 0.006 | refractive index ([2]; 323.15 K, x2 = 0): 1.425 ± 0.006 | refractive index ([2]; 323.15 K, x2 = 0.0517): 1.426 ± 0.006 | refractive index ([2]; 323.15 K, x2 = 0.0986): 1.427 ± 0.006 | refractive index ([2]; 323.15 K, x2 = 0.1998): 1.429 ± 0.006 | refractive index ([2]; 323.15 K, x2 = 0.3): 1.432 ± 0.006 | refractive index ([2]; 323.15 K, x2 = 0.3998): 1.435 ± 0.006 | refractive index ([2]; 323.15 K, x2 = 0.5031): 1.439 ± 0.006 | refractive index ([2]; 323.15 K, x2 = 0.5988): 1.443 ± 0.006 | refractive index ([2]; 323.15 K, x2 = 0.6998): 1.447 ± 0.006 | refractive index ([2]; 323.15 K, x2 = 0.7918): 1.452 ± 0.006 | refractive index ([2]; 323.15 K, x2 = 0.899): 1.459 ± 0.006 | refractive index ([2]; 323.15 K, x2 = 0.9494): 1.462 ± 0.006

Source: the NIST ThermoML archive (doi:10.1016/j.jct.2018.02.018)
